We go through 1 compound from ChEMBL document CHEMBL3886468, “Cyclohexylamine derivatives having β2 adrenergic agonist and M3 muscarinic antagonist activities” (2016).

The assay has as its target Muscarinic acetylcholine receptor M3 (Homo sapiens, UniProt P20309). The experiment in a line: Muscarinic Receptor Binding Assay: The study of binding to human muscarinic M1, M2, M3, M4 and M5 receptors was performed using commercial membranes (Perkin Elmer) prepared from CHO-K1 cells. Radioligand binding experiments were conducted in 96 polypropylene well plates in a total volume of 200 ul. All reagents were dissolved in assay binding buffer (PBS with calcium and magnesium, SIGMA), except compounds that were dissolved in DMSO 100%. Non-specific binding (NSB) was measured in the presence of 1 uM atropine. [3H]-NMS was used as the radioligand at a concentration of 1 nM for M2, M3 and M5 and 0.3 nM for M1 and M4. [3H]-NMS and antagonists were incubated with membranes that express human muscarinic receptors M1, M2, M3, M4 and M5 at concentrations of 8.1, 10, 4.9, 4.5 and 4.9 ug/well, respectively. After an incubation period of two hours with gentle shaking, 150 ul of the reaction mix were transferred to 96 GF/C filter plates (Millipore), previously treated with wash buffer. Type of assay: cell-based.

Muscarinic acetylcholine receptor M3, sequence (P20309 whole entry): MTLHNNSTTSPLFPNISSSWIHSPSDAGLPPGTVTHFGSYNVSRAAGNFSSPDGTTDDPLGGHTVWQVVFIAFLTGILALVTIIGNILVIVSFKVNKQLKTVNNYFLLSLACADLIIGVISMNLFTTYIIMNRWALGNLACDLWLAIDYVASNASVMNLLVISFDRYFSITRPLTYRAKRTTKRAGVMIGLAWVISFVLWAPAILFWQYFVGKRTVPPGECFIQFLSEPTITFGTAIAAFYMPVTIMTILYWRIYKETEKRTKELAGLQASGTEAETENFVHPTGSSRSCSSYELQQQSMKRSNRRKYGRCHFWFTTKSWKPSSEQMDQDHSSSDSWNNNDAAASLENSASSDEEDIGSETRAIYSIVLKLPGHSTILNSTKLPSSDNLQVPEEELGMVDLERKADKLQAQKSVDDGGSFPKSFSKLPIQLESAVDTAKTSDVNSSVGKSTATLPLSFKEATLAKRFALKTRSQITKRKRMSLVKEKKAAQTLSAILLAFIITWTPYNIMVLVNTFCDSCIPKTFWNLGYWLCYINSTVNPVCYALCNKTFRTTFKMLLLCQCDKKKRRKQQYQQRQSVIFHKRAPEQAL

Usually IC50 stands for the point on the concentration scale where inhibition reaches its midpoint. For `CN(CCCn1nnc2cc(CNC[C@H](O)c3ccc(O)c4c3OCC(=O)N4)ccc21)[C@H]1CC[C@H](OC(=O)[C@](O)(c2cccs2)C2CCCC2)CC1`, the IC50 is 0.4 nM.
